# Read-outs that look alike come from different tables or passages of the source.
# How the values were obtained:
# [1] = tested on: CD8-MerTK in Ba/F3-CDM cells; assay: In cell MER kinase assay, Ba/F3-CDM cell proliferation without IL-3 (Celltiter-Glo); assay type: cell-based, murine; settings: 48 hours compound treatment, read-out: Cell growth inhibition (GI50)
# Outline: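 Ba/F3 cells, IL-3-dependent, transfected with CD8-MerTK and grown without IL-3 in DMEM/10% FBS. IL-3-supplemented Ba/F3 cells run in parallel as a cytotoxicity control.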
# [2] = target: human c-MER catalytic domain (Homo sapiens (Human), UniProt Q12866); assay: LanthaScreen TR-FRET kinase assay, c-MER
# Sequence of human c-MER catalytic domain (Q12866 587-858): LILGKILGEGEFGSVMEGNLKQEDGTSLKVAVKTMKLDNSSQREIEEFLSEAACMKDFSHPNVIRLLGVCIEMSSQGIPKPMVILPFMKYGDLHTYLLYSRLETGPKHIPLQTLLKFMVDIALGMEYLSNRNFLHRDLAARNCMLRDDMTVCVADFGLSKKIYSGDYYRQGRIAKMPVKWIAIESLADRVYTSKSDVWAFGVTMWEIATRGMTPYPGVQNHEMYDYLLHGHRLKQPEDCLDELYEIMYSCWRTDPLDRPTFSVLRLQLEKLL
# [3] = read-out: Mer TK inhibition (IC50), Biochemical IC50, TR-FRET, 10 uM ATP
IC50 [2] [nM],Structure (SMILES),GI50 [1] [nM],"IC50 [2, 3] [nM]"
,"CN1CCN(Cc2ccc(-c3ccc(CO[C@H]4CCC[C@@H]4NC(=O)c4cc(-c5ccncc5)cnc4N)cc3)cc2)CC1 [Example 377, 6-amino-N-((1S,2S)-2-((4′-((4-methylpiperazin-1-yl)methyl)-[1,1′-biphenyl]-4-yl)methoxy)cyclopentyl)-[3,4′-bipyridine]-5-carboxamide]",< 100,< 10
,"CC1CCN(Cc2ccc(-c3cnc(N)c(C(=O)N[C@H]4CCC[C@@H]4OCc4ccc(-c5ccc(CN6CCN(C)CC6)cc5)cc4)c3)cc2)CC1 [Example 378, 2-amino-N-((1S,2S)-2-((4′-((4-methylpiperazin-1-yl)methyl)-[1,1′-biphenyl]-4-yl)methoxy)cyclopentyl)-5-(4-((4-methylpiperidin-1-yl)methyl)phenyl)-nicotinamide]",< 100,< 10
,"CN1CCN(Cc2ccc(-c3ccc(CO[C@H]4CCC[C@@H]4NC(=O)c4cc(-c5ccc(CN6CCOCC6)cc5)cnc4N)cc3)cc2)CC1 [Example 379, 2-amino-N-((1S,2S)-2-((4′-((4-methylpiperazin-1-yl)methyl)-[1,1′-biphenyl]-4-yl)methoxy)cyclopentyl)-5-(4-(morpholinomethyl)phenyl)nicotinamide]",< 100,< 10
,CN1CCN(Cc2ccc(-c3ccc(CO[C@H]4CCC[C@@H]4NC(=O)c4cc(-c5cnn(C6CCOCC6)c5)cnc4N)cc3)cc2)CC1 [Example 380],< 100,< 10
,"CN1CCN(Cc2ccc(-c3ccc(CO[C@H]4CCC[C@@H]4NC(=O)c4cc(-c5ccc(N6CCOCC6)cc5)cnc4N)cc3)cc2)CC1 [Example 381, 2-amino-N-((1S,2S)-2-((4′-((4-methylpiperazin-1-yl)methyl)-[1,1′-biphenyl]-4-yl)methoxy)cyclopentyl)-5-(4-morpholinophenyl)nicotinamide]",< 100,< 10
,"COc1ccc(-c2cnc(N)c(C(=O)N[C@H]3CCC[C@@H]3OCc3ccc(-c4ccc(CN5CCN(C)CC5)cc4)cc3)c2)cc1OC [Example 383, 2-amino-5-(3,4-dimethoxyphenyl)-N-((1S,2S)-2-((4′-((4-methylpiperazin-1-yl)methyl)-[1,1′-biphenyl]-4-yl)methoxy)cyclopentyl)nicotinamide]",< 100,< 10
,CN1CCN(Cc2ccc(-c3ccc(CO[C@H]4CCC[C@@H]4NC(=O)c4cc(-c5cc(F)nc(F)c5)cnc4N)cc3)cc2)CC1 [Example 384],< 100,< 10
,"Cc1cscc1-c1cnc(N)c(C(=O)N[C@H]2CCC[C@@H]2OCc2ccc(-c3ccc(CN4CCN(C)CC4)cc3)cc2)c1 [Example 385, 2-amino-N-((1S,2S)-2-((4′-((4-methylpiperazin-1-yl)methyl)-[1,1′-biphenyl]-4-yl)methoxy)cyclopentyl)-5-(4-methylthiophen-3-yl)nicotinamide]",100 to 500,< 10
,"CN1CCN(Cc2ccc(-c3ccc(CO[C@H]4CCC[C@@H]4NC(=O)c4cc(-c5ccc(F)nc5)cnc4N)cc3)cc2)CC1 [Example 386, 6-amino-6′-fluoro-N-((1S,2S)-2-((4′-((4-methylpiperazin-1-yl)methyl)-[1,1′-biphenyl]-4-yl)methoxy)cyclopentyl)-[3,3′-bipyridine]-5-carboxamide]",< 100,< 10
,CN1CCN(Cc2ccc(-c3ccc(CO[C@H]4CCC[C@@H]4NC(=O)c4cc(-c5cnn(C(F)(F)C(F)F)c5)cnc4N)cc3)cc2)CC1 [Example 387],< 100,< 10
< 10,"CCc1cc(CO[C@H]2CNC[C@@H]2NC(=O)c2cc(-c3cnn(C)c3)cnc2N)ccc1C [Example 388, 2-amino-N-((3S,4S)-4-((3-ethyl-4-methylbenzyl)oxy)pyrrolidin-3-yl)-5-(1-methyl-1H-pyrazol-4-yl)nicotinamide]",100 to 500,
,"CCc1cc(CO[C@H]2CNC[C@@H]2NC(=O)c2cc(-c3ccc(CO)cc3)cnc2N)ccc1C [Example 389, 2-amino-N-((3S,4S)-4-((3-ethyl-4-methylbenzyl)oxy)pyrrolidin-3-yl)-5-(4-(hydroxymethyl)phenyl)nicotinamide]",100 to 500,< 10
,"CCc1cc(CO[C@H]2CNC[C@@H]2NC(=O)c2cc(-c3ccc(CN4CCN(C)CC4)cc3)cnc2N)ccc1C [Example 390, 2-amino-N-((3S,4S)-4-((3-ethyl-4-methylbenzyl)oxy)pyrrolidin-3-yl)-5-(4-((4-methylpiperazin-1-yl)methyl)phenyl)nicotinamide]",100 to 500,< 10
,"CCc1cc(CO[C@H]2CNC[C@@H]2NC(=O)c2cc(-c3ccc(C(N)=O)cc3)cnc2N)ccc1C [Example 391, 2-amino-5-(4-carbamoylphenyl)-N-((3S,4S)-4-((3-ethyl-4-methylbenzyl)oxy)pyrrolidin-3-yl)nicotinamide]",> 1000,< 10
,"CCc1cc(CO[C@H]2CNC[C@@H]2NC(=O)c2cc(-c3ccccc3)cnc2N)ccc1C [Example 394, 2-amino-N-((3S,4S)-4-((3-ethyl-4-methylbenzyl)oxy)pyrrolidin-3-yl)-5-phenylnicotinamide]",500 to 1000,< 10
,"CCc1cc(CO[C@H]2CNC[C@@H]2NC(=O)c2cc(-c3ccncc3)cnc2N)ccc1C [Example 395, 6-amino-N-((3S,4S)-4-((3-ethyl-4-methylbenzyl)oxy)pyrrolidin-3-yl)-[3,4′-bipyridine]-5-carboxamide]",500 to 1000,< 10
,"CCc1cc(CO[C@H]2CNC[C@@H]2NC(=O)c2cc(-c3cccnc3)cnc2N)ccc1C [Example 396, 6-amino-N-((3S,4S)-4-((3-ethyl-4-methylbenzyl)oxy)pyrrolidin-3-yl)-[3,3′-bipyridine]-5-carboxamide]",> 1000,< 10
< 10,"CCc1cc(CO[C@H]2CNC[C@@H]2NC(=O)c2cc(-c3ccc(C=O)cc3)cnc2N)ccc1C [Example 399, 2-amino-N-((3S,4S)-4-((3-ethyl-4-methylbenzyl)oxy)pyrrolidin-3-yl)-5-(4-formylphenyl)nicotinamide]",500 to 1000,
,"CCc1cc(CO[C@H]2CNC[C@@H]2NC(=O)c2cc(-c3ccc(C#N)cc3)cnc2N)ccc1C [Example 400, 2-amino-5-(4-cyanophenyl)-N-((3S,4S)-4-((3-ethyl-4-methylbenzyl)oxy)pyrrolidin-3-yl)nicotinamide]",500 to 1000,< 10
,"CCc1cc(CO[C@H]2CNC[C@@H]2NC(=O)c2cc(-c3ccc(NS(C)(=O)=O)cc3)cnc2N)ccc1C [Example 401, 2-amino-N-((3S,4S)-4-((3-ethyl-4-methylbenzyl)oxy)pyrrolidin-3-yl)-5-(4-(methylsulfonamido)phenyl)nicotinamide]",> 1000,< 10
,"CCc1cc(CO[C@H]2CNC[C@@H]2NC(=O)c2cc(-c3ccc(N(C)C)cc3)cnc2N)ccc1C [Example 405, 2-amino-5-(4-(dimethylamino)phenyl)-N-((3S,4S)-4-((3-ethyl-4-methylbenzyl)oxy)pyrrolidin-3-yl)nicotinamide]",100 to 500,< 10
,"CCc1cc(CO[C@H]2CNC[C@@H]2NC(=O)c2cc(-c3ccc(CC#N)cc3)cnc2N)ccc1C [Example 411, 2-amino-5-(4-(cyanomethyl)phenyl)-N-((3S,4S)-4-((3-ethyl-4-methylbenzyl)oxy)pyrrolidin-3-yl)nicotinamide]",100 to 500,< 10
,"CCc1cc(CO[C@H]2CNC[C@@H]2NC(=O)c2cc(-c3cnn(C4CCNCC4)c3)cnc2N)ccc1C [Example 412, 2-amino-N-((3S,4S)-4-((3-ethyl-4-methylbenzyl)oxy)pyrrolidin-3-yl)-5-(1-(piperidin-4-yl)-1H-pyrazol-4-yl)nicotinamide]",> 1000,< 10
,"CCc1cc(CO[C@H]2CNC[C@@H]2NC(=O)c2cc(-c3cnn(C4CCN(C)CC4)c3)cnc2N)ccc1C [Example 413, 2-amino-N-((3S,4S)-4-((3-ethyl-4-methylbenzyl)oxy)pyrrolidin-3-yl)-5-(1-(1-methylpiperidin-4-yl)-1H-pyrazol-4-yl)nicotinamide]",500 to 1000,< 10
,"Cc1ccc(CO[C@H]2CNC[C@@H]2NC(=O)c2cc(-c3cnn(C)c3)cnc2N)cc1 [Example 415, 2-amino-5-(1-methyl-1H-pyrazol-4-yl)-N-((3S,4S)-4-((4-methylbenzyl)oxy)pyrrolidin-3-yl)nicotinamide]",> 1000,< 10
,"CCc1cccc(CO[C@H]2CNC[C@@H]2NC(=O)c2cc(-c3cnn(C)c3)cnc2N)c1 [Example 416, 2-amino-N-((3S,4S)-4-((3-ethylbenzyl)oxy)pyrrolidin-3-yl)-5-(1-methyl-1H-pyrazol-4-yl)nicotinamide]",100 to 500,< 10
,"CCc1cc(CO[C@H]2CNC[C@@H]2NC(=O)c2cc(-c3ccc(C(=O)NC4CCN(C)CC4)cc3)cnc2N)ccc1C [Example 419, 2-amino-N-((3S,4S)-4-((3-ethyl-4-methylbenzyl)oxy)pyrrolidin-3-yl)-5-(4-((1-methylpiperidin-4-yl)carbamoyl)phenyl)nicotinamide]",> 1000,< 10
,"CCc1cc(CO[C@H]2CN(C)C[C@@H]2NC(=O)c2cc(-c3cnn(C)c3)cnc2N)ccc1C [Example 426, 2-amino-N-((3S,4S)-4-((3-ethyl-4-methylbenzyl)oxy)-1-methylpyrrolidin-3-yl)-5-(1-methyl-1H-pyrazol-4-yl)nicotinamide]",500 to 1000,< 10
,"CCc1cc(CO[C@H]2CN(C)C[C@@H]2NC(=O)c2cc(-c3cnn(C4CCN(C)CC4)c3)cnc2N)ccc1C [Example 433, 2-amino-N-((3S,4S)-4-((3-ethyl-4-methylbenzyl)oxy)-1-methylpyrrolidin-3-yl)-5-(1-(1-methylpiperidin-4-yl)-1H-pyrazol-4-yl)nicotinamide]",100 to 500,< 10

# From patent publication US10125118B2, “Heteroaryl compounds and their use as therapeutic drugs” (Dong-A Socio Holdings Co., Ltd., priority 2015, dated 2018)
